Reference: patent US20190151312A1, “HEPARAN SULFATE BIOSYNTHESIS INHIBITORS FOR THE TREATMENT OF DISEASES” (BioMarin Pharmaceutical Inc., priority 2014, published 2019)

Test system: GM01896 cells (MPS II dermal fibroblasts)
Assay: Assay 1: MPS cellular assay, MPS II (heparan sulfate disaccharide biomarkers by LC-MS)
Assay type: cell-based, human
Conditions: Assay 1 for MPS II, heparan sulfate disaccharide biomarkers (I2a4, I2a6, I2S0 and/or I2S6), read-out: IC50 Range
Outline: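 Heparan sulfate disaccharide biomarkers quantified by LC-MS after heparinase I/II/III digestion and isotopic aniline labelling, using GM01896 MPS II fibroblasts exposed to compound (at or below 30 μM, 4-21 days). Values given as IC50 by curve fitting; cell viability checked with alamar blue or ATP.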

| SMILES | IC50 |
| --- | --- |
| Cn1c(=O)[nH]c2ccc(-c3cc(Nc4ccc(Cl)cc4)nc(N4CCOCC4)n3)cc21 [6-{6-[(4-chlorophenyl)amino]-2-morpholin-4-ylpyrimidin-4-yl}-1-methyl-3-hydrobenzimidazol-2-one] | < 500 nM |

Same assay, conditions: Homo sapiens, Fibroblast, Assay 1 for MPS II, heparan sulfate disaccharide biomarkers (I2a4, I2a6, I2S0 and/or I2S6), read-out: IC50 Range

| SMILES | IC50 |
| --- | --- |
| Cc1nnc(-c2ccc(Nc3cc(-c4ccc5cnn(CCN6CCOCC6)c5c4)nc(N4CCOCC4)n3)cc2)[nH]1 [[4-(5-methyl(4H-1,2,4-triazol-3-yl))phenyl]{2-morpholin-4-yl-6-[1-(2-morpholin-4-ylethyl)(1H-indazol-6-yl)]pyrimidin-4-yl}amine] | < 500 nM |
| Cc1nc2ccc(-c3cc(Nc4ccc(Cl)cc4)nc(N4CCOCC4)n3)cc2n1CCN1CCOCC1 [(4-chlorophenyl){6-[2-methyl-1-(2-morpholin-4-ylethyl)benzimidazol-6-yl]-2-morpholin-4-ylpyrimidin-4-yl}amine] | 500 to 1000 nM |
| Cn1nc(CCN2CCOCC2)c2ccc(-c3cc(Nc4ccc(-c5ncc[nH]5)cc4)nc(N4CCOCC4)n3)cc21 [(4-imidazol-2-ylphenyl){6-[1-methyl-3-(2-morpholin-4-ylethyl)(1H-indazol-6-yl)]-2-morpholin-4-ylpyrimidin-4-yl}amine] | 1000 to 5000 nM |
| Cc1nn(C)c2cc(-c3cc(Nc4ccc5ccn(C)c5c4)nc(N4CCOCC4)n3)ccc12 [[6-(1,3-dimethyl(1H-indazol-6-yl))-2-morpholin-4-ylpyrimidin-4-yl](1-methylindol-6-yl)amine] | < 500 nM |
| Cc1nn(C)c2cc(-c3cc(Nc4ccc5ncn(C)c5c4)nc(N4CCOCC4)n3)ccc12 [[6-(1,3-dimethyl(1H-indazol-6-yl))-2-morpholin-4-ylpyrimidin-4-yl](1-methylbenzimidazol-6-yl)amine] | 1000 to 5000 nM |
| CNC(=O)c1ccc(Nc2cc(-c3ccc4c(c3)ncn4C3CC3)nc(N3CCOCC3)n2)cc1 [(4-{[6-(1-cyclopropylbenzimidazol-5-yl)-2-morpholin-4-ylpyrimidin-4-yl]amino}phenyl)-N-methylcarboxamide] | 500 to 1000 nM |
| Cc1nn(C)c2cc(-c3cc(Nc4ccc(-c5cnn[nH]5)cc4)nc(N4CCOCC4)n3)ccc12 [(4-(1H-1,2,3-triazol-5-yl)phenyl)[6-(1,3-dimethyl(1H-indazol-6-yl))-2-morpholin-4-ylpyrimidin-4-yl]amine] | 500 to 1000 nM |
| Cn1cnc2ccc(-c3cc(Nc4ccc(C(=O)NCC5CC5)cc4)nc(N4CCOCC4)n3)cc21 [N-(cyclopropylmethyl)(4-{[6-(1-methylbenzimidazol-6-yl)-2-morpholin-4-ylpyrimidin-4-yl]amino}phenyl)carboxamide] | 500 to 1000 nM |
| Clc1ccc(Nc2cc(-c3ccc4ncn(C5COC5)c4c3)nc(N3CCOCC3)n2)cc1 [(4-chlorophenyl)[2-morpholin-4-yl-6-(1-oxetan-3-ylbenzimidazol-6-yl)pyrimidin-4-yl]amine] | < 500 nM |
| Cc1nn(C)c2cc(-c3cc(Nc4ccc(-c5nnc(C(C)C)[nH]5)cc4)nc(N4CCOCC4)n3)ccc12 [[6-(1,3-dimethyl(1H-indazol-6-yl))-2-morpholin-4-ylpyrimidin-4-yl]{4-[5-(methylethyl)(4H-1,2,4-triazol-3-yl)]phenyl}amine] | < 500 nM |
| Cn1ccc2cc(Nc3cc(-c4ccc5cnn(C)c5c4)nc(N4CCOCC4)n3)ccc21 [[6-(1-methyl(1H-indazol-6-yl))-2-morpholin-4-ylpyrimidin-4-yl](1-methylindol-5-yl)amine] | 1000 to 5000 nM |
| Cc1nn(C)c2cc(-c3cc(Nc4ccc(-c5nccn5C)cc4)nc(N4CCOCC4)n3)ccc12 [[6-(1,3-dimethyl(1H-indazol-6-yl))-2-morpholin-4-ylpyrimidin-4-yl][4-(1-methylimidazol-2-yl)phenyl]amine] | < 500 nM |
| Clc1ccc(Nc2cc(-c3ccc4cnn(CCCN5CCCC5)c4c3)nc(N3CCOCC3)n2)cc1 [(4-chlorophenyl){2-morpholin-4-yl-6-[1-(3-pyrrolidinylpropyl)(1H-indazol-6-yl)]pyrimidin-4-yl}amine] | 1000 to 5000 nM |
| Cn1ncc2ccc(-c3cc(Nc4ccc(-c5nnc(C6CC6)[nH]5)cc4)nc(N4CCOCC4)n3)cc21 [[4-(5-cyclopropyl(4H-1,2,4-triazol-3-yl))phenyl][6-(1-methyl(1H-indazol-6-yl))-2-morpholin-4-ylpyrimidin-4-yl]amine] | < 500 nM |
| Cn1nc(CCN2CCOCC2)c2ccc(-c3cc(Nc4ccc5ccn(C6CC6)c5c4)nc(N4CCOCC4)n3)cc21 [(1-cyclopropylindol-6-yl) {6-[1-methyl-3-(2-morpholin-4-ylethyl)(1H-indazol-6-yl)]-2-morpholin-4-ylpyrimidin-4-yl}amine] | 1000 to 5000 nM |
| Cn1c(CCN2CCOCC2)nc2ccc(-c3cc(Nc4ccc(Cl)cc4)nc(N4CCOCC4)n3)cc21 [(4-chlorophenyl){6-[1-methyl-2-(2-morpholin-4-ylethyl)benzimidazol-6-yl]-2-morpholin-4-ylpyrimidin-4-yl}amine] | < 500 nM |
| Cc1nn(C)c2cc(-c3cc(Nc4ccc5c(C)c(C)n(C)c5c4)nc(N4CCOCC4)n3)ccc12 [[6-(1,3-dimethyl(1H-indazol-6-yl))-2-morpholin-4-ylpyrimidin-4-yl](1,2,3-trimethylindol-6-yl)amine] | 1000 to 5000 nM |

| SMILES | IC50 |
| --- | --- |
| Cc1nn(-c2ccc(Nc3cc(-c4ccc5c(C)nn(C)c5c4)nc(N4CCOCC4)n3)cc2)nc1C [[4-(4,5-dimethyl(1,2,3-triazol-2-yl))phenyl][6-(1,3-dimethyl(1H-indazol-6-yl))-2-morpholin-4-ylpyrimidin-4-yl]amine] | 1000 to 5000 nM |
| CC(=O)Nc1ccc(Nc2cc(-c3ccc4cnn(C)c4c3)nc(N3CCOCC3)n2)cc1 [N-(4-{[6-(1-methyl(1H-indazol-6-yl))-2-morpholin-4-ylpyrimidin-4-yl]amino}phenyl)acetamide] | 500 to 1000 nM |
| Cn1ncc2ccc(-c3cc(Nc4ccc5[nH]ncc5c4)nc(N4CCOCC4)n3)cc21 [1H-indazol-5-yl[6-(1-methyl(1H-indazol-6-yl))-2-morpholin-4-ylpyrimidin-4-yl]amine] | 1000 to 5000 nM |
| Cc1nn(C)c2cc(-c3cc(Nc4ccc(Cl)cc4)nc(N4CCOCC4)n3)ccc12 [[6-(1,3-dimethyl(1H-indazol-6-yl))-2-morpholin-4-ylpyrimidin-4-yl](4-chlorophenyl)amine] | 500 to 1000 nM |
| Cn1ncc2ccc(-c3cc(Nc4ccc(S(N)(=O)=O)cc4)nc(N4CCOCC4)n3)cc21 [4-{[6-(1-methyl(1H-indazol-6-yl))-2-morpholin-4-ylpyrimidin-4-yl]amino}benzenesulfonamide] | 1000 to 5000 nM |
| Cc1nn(C)c2cc(-c3cc(Nc4cc(Cl)c5ccn(C)c5c4)nc(N4CCOCC4)n3)ccc12 [[6-(1,3-dimethyl(1H-indazol-6-yl))-2-morpholin-4-ylpyrimidin-4-yl](4-chloro-1-methylindol-6-yl)amine] | 1000 to 5000 nM |
| CNC(=O)c1ccc(Nc2cc(-c3ccc4cnn(CCN(C)C)c4c3)nc(N3CCOCC3)n2)cc1 [{4-[(6-{1-[2-(dimethylamino)ethyl](1H-indazol-6-yl)}-2-morpholin-4-ylpyrimidin-4-yl)amino]phenyl}-N-methylcarboxamide] | 500 to 1000 nM |
| CNC(=O)c1ccc(Nc2cc(-c3ccc4cnn(C)c4c3)nc(N3CCOCC3)n2)cn1 [N-methyl(5-{[6-(1-methyl(1H-indazol-6-yl))-2-morpholin-4-ylpyrimidin-4-yl]amino}(2-pyridyl))carboxamide] | 500 to 1000 nM |
| Cn1ncc2ccc(Nc3cc(-c4ccc5cnn(C)c5c4)nc(N4CCOCC4)n3)cc21 [(1-methyl(1H-indazol-6-yl))[6-(1-methyl(1H-indazol-6-yl))-2-morpholin-4-ylpyrimidin-4-yl]amine] | 1000 to 5000 nM |
| COCCNc1nc2ccc(-c3cc(Nc4ccc(Cl)cc4)nc(N4CCOCC4)n3)cc2n1C [(4-chlorophenyl)(6-{2-[(2-methoxyethyl)amino]-1-methylbenzimidazol-6-yl}-2-morpholin-4-ylpyrimidin-4-yl)amine] | 500 to 1000 nM |
| Cc1cnn(-c2ccc(Nc3cc(-c4ccc5cnn(C)c5c4)nc(N4CCOCC4)n3)cc2)n1 [[4-(4-methyl(1,2,3-triazol-2-yl))phenyl][6-(1-methyl(1H-indazol-6-yl))-2-morpholin-4-ylpyrimidin-4-yl]amine] | < 500 nM |
| Cc1nc2cc(-c3cc(Nc4ccc(Cl)cc4)nc(N4CCOCC4)n3)ccc2n1CCN1CCOCC1 [(4-chlorophenyl){6-[2-methyl-1-(2-morpholin-4-ylethyl)benzimidazol-5-yl]-2-morpholin-4-ylpyrimidin-4-yl}amine] | 1000 to 5000 nM |
| Cc1nn(C)c2cc(-c3cc(Nc4ccc5[nH]ncc5c4)nc(N4CCOCC4)n3)ccc12 [1H-indazol-5-yl[6-(1,3-dimethyl(1H-indazol-6-yl))-2-morpholin-4-ylpyrimidin-4-yl]amine] | 1000 to 5000 nM |
| Clc1ccc(Nc2cc(-c3ccc4cnn(CCN5CCOCC5)c4c3)nc(N3CCOCC3)n2)cc1 [(4-chlorophenyl){2-morpholin-4-yl-6-[1-(2-morpholin-4-ylethyl)(1H-indazol-6-yl)]pyrimidin-4-yl}amine] | 500 to 1000 nM |
| Cn1nc(CCN2CCOCC2)c2ccc(-c3cc(Nc4ccc(-c5nnc(C6CC6)[nH]5)cc4)nc(N4CCOCC4)n3)cc21 [[4-(5-cyclopropyl(4H-1,2,4-triazol-3-yl))phenyl]{6-[1-methyl-3-(2-morpholin-4-ylethyl)(1H-indazol-6-yl)]-2-morpholin-4-ylpyrimidin-4-yl}amine] | < 500 nM |
| Cn1ncc2ccc(-c3cc(Nc4ccc5nnn(C)c5c4)nc(N4CCOCC4)n3)cc21 [[6-(1-methyl(1H-indazol-6-yl))-2-morpholin-4-ylpyrimidin-4-yl](1-methylbenzotriazol-6-yl)amine] | 1000 to 5000 nM |
| Cc1nn(C)c2cc(-c3cc(Nc4ccc(-c5cn(C)cn5)cc4)nc(N4CCOCC4)n3)ccc12 [[6-(1,3-dimethyl(1H-indazol-6-yl))-2-morpholin-4-ylpyrimidin-4-yl][4-(1-methylimidazol-4-yl)phenyl]amine] | 1000 to 5000 nM |
